Measured values taken from article PMC9785777, “Antidiabetic Potential of Novel 1,3,5-Trisubstituted-2-Thioxoimidazloidin-4-One Analogues: Insights into α-Glucosidase, α-Amylase, and Antioxidant Activities” (Pharmaceuticals, 2022).

What was measured:
[1] = DPPH free radical scavenging assay
Text: The antioxidant capability of compounds 5a and 7a was estimated utilizing the DPPH (2,2-diphenyl-1- picrylhydrazyl) scavenging assay to assess the free radical scavenger activity. DPPH is a stable free radical substrate with a purple color which upon reaction with an antioxidant compound, converts into 1,1-diphenyl-2-picryl hydrazine, a […] compound. The DPPH assay is widely applied for the investigation of superoxide radical scavenging activity. In this regard, compounds 5a and 7a were incubated at different concentrations (3.12, 6.25, 12.5, 25, 50, 100, and 200 µg/mL) with DPPH substrate and the absorption was assessed by ELISA at 510 nm. In our investigations, Trolox, a water-soluble analogue of vitamin E, was applied as a standard antioxidant reference drug. […] Further, Qamar et al. synthesized and evaluated the antioxidant activity of some novel N3-substituted-2-thiohydantoins.
According to Valko et al., the ELISA approach was used to analyze the free-radical DPPH scavenging activity of compounds (5a and 7a) at different concentrations (3.12, 6.25, 12.5, 25, 50, 100, and 200 µg/mL). The DPPH assay assesses the hydrogen-donating activity and thus provides an evaluation of the antioxidant activity via estimating the DPPH free-radical scavenging activity. The color intensity of the reaction mixture was measured after a purple-colored stable free radical (DPPH) was reduced into the yellow-colored diphenylpicryl hydrazinem. Briefly, 200 µL of different concentrations of compounds 5a and 7a were mixed with 50 µL of DPPH (0.659 mM) solution, and the mixture was incubated at 25 °C for 20 min. The absorbance of the reaction mixture was estimated after incubation at 510 nm. In our investigations, trolox was employed as standard reference drug. A control reaction was performed, and the inhibitory efficiency of DPPH radical-scavenging activity was determined using the equation below: % Inhibition = (A0 − A1)/A0 × 100 (1) where A0 is absorbance of […] and A1 is the absorbance of the compound.

[2] = target: T1, α-glucosidase enzyme (EC3.2.1.20) (Saccharomyces cerevisiae, UniProt P53341); assay: biochemical; conditions: for inhibition at 1 µg/mL / inhibition at 10 µg/mL / inhibition at 100 µg/mL / inhibition at 1000 µg/mL: read-out: % inhibition of α-glucosidase
T1 construct: purchased Sigma-Aldrich
T1 sequence (P53341 whole entry): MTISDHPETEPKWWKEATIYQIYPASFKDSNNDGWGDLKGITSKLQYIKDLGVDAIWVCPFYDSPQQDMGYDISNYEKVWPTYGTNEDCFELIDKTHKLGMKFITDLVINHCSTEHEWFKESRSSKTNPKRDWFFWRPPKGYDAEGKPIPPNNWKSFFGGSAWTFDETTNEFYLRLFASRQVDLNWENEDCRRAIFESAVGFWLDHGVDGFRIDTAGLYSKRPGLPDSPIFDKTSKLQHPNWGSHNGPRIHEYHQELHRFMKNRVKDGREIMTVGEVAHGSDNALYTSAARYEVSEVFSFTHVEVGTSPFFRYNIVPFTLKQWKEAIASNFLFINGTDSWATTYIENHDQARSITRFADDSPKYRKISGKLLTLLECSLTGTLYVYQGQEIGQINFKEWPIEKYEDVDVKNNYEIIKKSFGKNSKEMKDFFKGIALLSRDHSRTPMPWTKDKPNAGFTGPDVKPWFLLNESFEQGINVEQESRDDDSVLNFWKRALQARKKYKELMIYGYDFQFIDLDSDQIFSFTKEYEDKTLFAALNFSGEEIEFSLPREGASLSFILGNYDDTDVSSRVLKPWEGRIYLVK
Text: The α-glucosidase enzyme is mainly expressed in the small intestine and catalyzes the breakdown of carbohydrates into glucose units by cleaving the glucosidic bonds. α-Glucosidase blockers are the first-line drugs for the treatment of non-insulin-dependent DM by suppressing carbohydrate hydrolysis and consequently retarding glucose absorption into the bloodstream and reducing postprandial hyperglycemia. α-Glucosidase is, thus, considered to be an attractive pharmaceutical target for the treatment of […] via control of the blood glucose levels. Accordingly, there is a continuous need to develop a potential class of α-glucosidase inhibitors. Toward this aim, we explored the potency of the synthesized compounds to inhibit the activity of α-glucosidase. We examined the inhibitory activity of the synthesized compounds following the reported assay by Peytam et al.. Thus, the compounds at different concentrations (1000, 100, 10, and 1 µg/mL) were incubated with α-glucosidase and subsequently […] was added and the absorbance was monitored at 405 nm. […] To further investigate the structural aspects of 1,3-thiohydantoin scaffold, a substitution at the N1-position with the methyl-proponate group was performed. […] Nevertheless, it has adverse gastrointestinal effects including diarrhea and flatulence. Thus, the discovery of a novel class of potent antidiabetic agents is urgently demanded.
An ELISA reader was used to assess the inhibition of α-glucosidase by 1,3,5-trisubstituted-2-thioxoimidazolidin-4-ones derivatives at various doses (1000, 100, 10, and 1 µg/mL) according to Peytam et al.. […] Then, the substrate (25 µL, 4 mM) was added to the mentioned mixture and allowed to incubate at 37 °C for 20 min. Finally, the change in absorbance at 405 nm was monitored using a Cytation 3 hybrid microplate reader (BioTek, Winooski, VT, USA). […] GraphPad prism 6.0 was used to calculate the IC50 values of the investigated compounds from the nonlinear regression curve (Systat Software, Inc. Tools for Science) (https://www.graphpad.com/scientific-software/prism/ (accessed on 1 September 2022)).

[3] = target: T2, α-amylase enzyme (Sus scrofa, UniProt P00690); assay: α-amylase inhibition assay (DNSA, absorbance 595 nm); type: biochemical
T2 sequence (P00690 16-511): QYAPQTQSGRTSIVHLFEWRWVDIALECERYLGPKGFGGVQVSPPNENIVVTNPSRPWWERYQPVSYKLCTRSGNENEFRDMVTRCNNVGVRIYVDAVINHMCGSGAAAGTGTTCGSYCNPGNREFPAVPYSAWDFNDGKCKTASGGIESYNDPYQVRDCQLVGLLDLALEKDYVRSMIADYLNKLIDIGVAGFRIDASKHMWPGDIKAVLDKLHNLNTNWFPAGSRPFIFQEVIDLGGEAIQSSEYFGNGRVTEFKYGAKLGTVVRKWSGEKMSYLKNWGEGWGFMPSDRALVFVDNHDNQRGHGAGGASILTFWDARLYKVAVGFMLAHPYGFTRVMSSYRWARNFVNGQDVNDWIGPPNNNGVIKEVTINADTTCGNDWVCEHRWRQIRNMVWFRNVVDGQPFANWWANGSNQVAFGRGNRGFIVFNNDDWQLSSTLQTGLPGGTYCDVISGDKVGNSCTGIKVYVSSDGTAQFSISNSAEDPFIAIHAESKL
Text: Furthermore, pancreatic α-amylase mediates the activity of glycoproteins in the small intestine membrane, such as sucrase-isomaltase and sodium/glucose cotransporter 1, via binding with N-linked oligosaccharides. […] However, attempts to find novel antagonists with enhanced effectiveness and minimum adverse effects are still worth investigating. In this regard, we examined the inhibitory activity of the synthesized compounds 4a–b, 5a–b, and 7a–b toward α-amylase activity. Therefore, compounds at different concentrations (100, 10, 1, and 0.1 µg/mL) were mixed with the α-amylase enzyme and subsequently 3,5-dinitrosalicylic acid was added and the absorption was assessed at 595 nm. […] To date, several potent natural and synthetic antagonists with dual inhibitory activities toward α-amylase and α-glucosidase enzymes have been reported which succeeded in being applied in clinics.
The inhibitory activity of synthesized 1,3,5-trisubstituted-2-thioxoimidazolidin-4-ones derivatives toward α-amylase activity was determined by ELISA analysis according to Bernfeld and Colowick. The α-amylase enzyme was provided by Sigma-Aldrich and the stock solution was prepared in DMSO (10 mg/10 mL). […] Briefly, α-amylase enzyme (100 mg, 1 unit per mL) was mixed in 100 mL of a 20 mM sodium phosphate buffer (pH 6.9). […] After incubation, 100 μL of the DNSA reagent was added to this mixture, and then heated in a water bath at 85 °C for 15 min. The reaction mixture was taken from the water bath, cooled, and the absorbance value at 595 nm was assessed. Individual blanks were created in order to adjust the background absorbance. A control experiment was carried out following the same protocol using DMSO. The α-amylase enzyme activity and percentage of inhibition were determined using the following formula: % Inhibition=control−test/control×100

| DPPH free radical scavenging IC50 ([1]; n = 4) [µg/mL] | SMILES | %RSA (DPPH radical scavenging activity) ([1]; 3.12 µg/mL) [%] | %RSA (DPPH radical scavenging activity) ([1]; 6.25 µg/mL) [%] | %RSA (DPPH radical scavenging activity) ([1]; 12.5 µg/mL) [%] | %RSA (DPPH radical scavenging activity) ([1]; 25 µg/mL) [%] | %RSA (DPPH radical scavenging activity) ([1]; 50 µg/mL) [%] | %RSA (DPPH radical scavenging activity) ([1]; 100 µg/mL) [%] | %RSA (DPPH radical scavenging activity) ([1]; 200 µg/mL) [%] | IC50 [2] [µM] | inhibition at 1 µg/mL [2] [%] | inhibition at 10 µg/mL [2] [%] | inhibition at 100 µg/mL [2] [%] | inhibition at 1000 µg/mL [2] [%] | melting point [°C] | % inhibition of α-amylase ([3]; 0.1 µg/mL (log -1)) [%] | % inhibition of α-amylase ([3]; 1 µg/mL (log 0)) [%] | % inhibition of α-amylase ([3]; 10 µg/mL (log 1)) [%] | % inhibition of α-amylase ([3]; 100 µg/mL (log 2)) [%] |
| --- | --- | --- | --- | --- | --- | --- | --- | --- | --- | --- | --- | --- | --- | --- | --- | --- | --- | --- |
| 58.09 | Cc1c(C)c2c(c(C)c1O)CCC(C)(C(=O)O)O2 (stereo not shown) [Trolox, reference compound] | 11.3811 | 20.2046 | 32.4808 | 47.4425 | 63.2992 | 82.6087 | 89.0026 |  |  |  |  |  |  |  |  |  |  |
|  | C/C(=N\N1C(=O)/C(=C/c2ccccc2O)NC1=S)c1ccccc1O [Compound 4a, 5-(2-Hydroxybenzylidene)-3-(2-hydroxyphenylethylidene)-amino-2-thioxoimidazolidin-4-one] |  |  |  |  |  |  |  | 57.1 | 24.5 | 44.9 | 62.6 | 83.1 | 256 |  |  |  |  |
|  | COC(=O)CCN1C(=S)N(/N=C(\C)c2ccccc2O)C(=O)/C1=C/c1cc(Br)ccc1OC(C)=O [Compound 7b, Methyl [5-(5-bromo-2-acetoxybenzylidene)-4-oxo-3-(2-hydroxyphenylethylidene)amino-2-thioxoimidazolidin-1-yl] propionate] |  |  |  |  |  |  |  | 21.8 | 28 | 47.8 | 70.4 | 86.5 | 172 |  |  |  |  |
|  | C/C(=N\N1C(=O)/C(=C/c2cc(Br)ccc2O)NC1=S)c1ccccc1O [Compound 4b, 5-(5-Bromo-2-hydroxybenzylidene)-3-(2-hydroxyphenylethylidene)-amino-2-thioxoimidazolidin-4-ones] |  |  |  |  |  |  |  | ~72.4 | 20.4 | 36.4 | 58.9 | 84.7 | 263 |  |  |  |  |
|  | C[C@H]1O[C@H](O[C@H]2[C@H](O)[C@@H](O)[C@@H](O[C@H]3[C@H](O)[C@@H](O)C(O)O[C@@H]3CO)O[C@@H]2CO)[C@H](O)[C@@H](O)[C@@H]1N[C@H]1C=C(CO)[C@@H](O)[C@H](O)[C@H]1O (stereo partly shown) [Acarbose, reference compound] |  |  |  |  |  |  |  |  | 31.8 | 58.4 | 76.9 | 88.4 |  | 37.2 | 58.3 | 80.3 | 92.1 |
|  | COC(=O)CCN1C(=S)N(/N=C(\C)c2ccccc2O)C(=O)/C1=C/c1cc(Br)ccc1O [Compound 5b, Methyl [5-(5-Bromo-2-hydroxybenzylidene)-4-oxo-3-(2-hydroxyphenylethylidene)amino-2-thioxoimidazolidin-1-yl] propionate] |  |  |  |  |  |  |  | 21.3 | 27.6 | 50.3 | 71.4 | 87.4 | 192 |  |  |  |  |
